# “And” between values parts separate entries of the source, which are not always exact repeats. Identical values can stand only once.
# Columns and labels:
# [1] = Solubility of NITP in water and in Molecusol HPB solution; format: physicochemical; details: Molecusol HPB solution vs water
# Text: (§1) Britsh Journal of Cancer (1995) 72, 1462-1468 ft (32) 1995 Stockton Press All rights reserved 0007-0920/95 $12.00 Pharmacokinetics and binding of the bioreductive probe for hypoxia, NITP: effect of route of administration RJ Hodgkiss, MRL Stratford, MF Dennis and SA Hill Gray Laboratory Cancer Research Trust, P.O. Box 100, Mount Vernon Hospital, Northwood, Middlesex HA6 2JR, UK. Summary The novel compound 7-[4'-(2-nitroimidazol-l-yl)-butyl]-theophylline (NITP) can be used as an immunologically detectable probe for hypoxic cells. Because of the limited water solubility of NITP, it has been administered dissolved in peanut oil with 10% dimethylsulphoxide (DMSO). A new aqueous formulation has been devised, based on a 50% solution of a modified P-cyclodextrin (Molecusol HPB), which increases the water solubility of NITP 10-fold. […] Binding of the marker to hypoxic cells within tumours was also measured after the different routes of administration. […] The novel compound 7-[4'-(2-nitroimidazol-1-yl)-butyl]- theophylline (NITP), has been described as an immuno- logically detectable bioreductive probe for hypoxic cells (Hodgkiss et al., 1991), and appears to offer promise as a method of quantifying tumour hypoxia in vivo. […]
# [2] = Toxicity and tolerability after oral or i.p. administration; format: in vivo, mice
# Text: as §1
# CaNT tumours = test: Bound adducts of NITP in cells from tumours, fluorescent immunochemical staining and flow cytometry; format: in vivo, CBA mice; details: for proportion of total cells in the region of bound NITP metabolites: control region 1%
# Text: Britsh Journal of Cancer (1995) 72, 1462-1468 ft (32) 1995 Stockton Press All rights reserved 0007-0920/95 $12.00 Pharmacokinetics and binding of the bioreductive probe for hypoxia, NITP: effect of route of administration RJ Hodgkiss, MRL Stratford, MF Dennis and SA Hill Gray Laboratory Cancer Research Trust, P.O. Box 100, Mount Vernon Hospital, Northwood, Middlesex HA6 2JR, UK. Summary The novel compound 7-[4'-(2-nitroimidazol-l-yl)-butyl]-theophylline (NITP) can be used as an immunologically detectable probe for hypoxic cells. Because of the limited water solubility of NITP, it has been administered dissolved in peanut oil with 10% dimethylsulphoxide (DMSO). A new aqueous formulation has been devised, based on a 50% solution of a modified P-cyclodextrin (Molecusol HPB), which increases the water solubility of NITP 10-fold. The pharmacokinetics of NITP in plasma and tumours have been compared following oral and intraperitoneal (i.p.) administration of the NITP in Molecusol, i.p. administration of NITP dissolved in peanut oil + 10% DMSO and injection of a near-saturated aqueous solution of the drug intravenously via the tail vein or i.p. or directly into the tumours. Binding of the marker to hypoxic cells within tumours was also measured after the different routes of administration. The Molecusol vehicle was unexpectedly toxic when administered i.p., but there was no toxicity from NITP dissolved in Molecusol when administered orally. […] Binding of NITP within tumours has also been observed following direct injection of the drug, with minimal whole-body exposure to NITP. […] In particular, bioreductive drugs are specifically activated in hypoxic cells and can target those cells that are resistant to radiotherapy (for review see Stratford, 1992). Numerous methods have been proposed for measuring tumour hypoxia (for review see Hodgkiss and Wardman, 1992), in the hope that this would allow treatment to be optimised for individual patients on the basis of the oxygen status of their tumours. In particular, the hypoxia-specific binding of isotopically labelled 2-nitroimidazoles has been used to identify hypoxic cells in tumours, (e.g. Chapman et al., 1982; Franko and Chapman, 1982; Garrecht and Chap- man, 1983; Raleigh et al., 1985; Rasey et al., 1985; Urtasun et al., 1986). […] The novel compound 7-[4'-(2-nitroimidazol-1-yl)-butyl]- theophylline (NITP), has been described as an immuno- logically detectable bioreductive probe for hypoxic cells (Hodgkiss et al., 1991), and appears to offer promise as a method of quantifying tumour hypoxia in vivo. […]
# [3] = Plasma and tumour pharmacokinetics of NITP by HPLC after different routes and vehicles; format: in vivo, CBA mice; details: for AUC s.e.m. Tumour: CaNT tumour
# Text: Britsh Journal of Cancer (1995) 72, 1462-1468 ft (32) 1995 Stockton Press All rights reserved 0007-0920/95 $12.00 Pharmacokinetics and binding of the bioreductive probe for hypoxia, NITP: effect of route of administration RJ Hodgkiss, MRL Stratford, MF Dennis and SA Hill Gray Laboratory Cancer Research Trust, P.O. Box 100, Mount Vernon Hospital, Northwood, Middlesex HA6 2JR, UK. Summary The novel compound 7-[4'-(2-nitroimidazol-l-yl)-butyl]-theophylline (NITP) can be used as an immunologically detectable probe for hypoxic cells. Because of the limited water solubility of NITP, it has been administered dissolved in peanut oil with 10% dimethylsulphoxide (DMSO). A new aqueous formulation has been devised, based on a 50% solution of a modified P-cyclodextrin (Molecusol HPB), which increases the water solubility of NITP 10-fold. The pharmacokinetics of NITP in plasma and tumours have been compared following oral and intraperitoneal (i.p.) administration of the NITP in Molecusol, i.p. administration of NITP dissolved in peanut oil + 10% DMSO and injection of a near-saturated aqueous solution of the drug intravenously via the tail vein or i.p. or directly into the tumours. Binding of the marker to hypoxic cells within tumours was also measured after the different routes of administration. The Molecusol vehicle was unexpectedly toxic when administered i.p., but there was no toxicity from NITP dissolved in Molecusol when administered orally. […] Binding of NITP within tumours has also been observed following direct injection of the drug, with minimal whole-body exposure to NITP. […] In particular, bioreductive drugs are specifically activated in hypoxic cells and can target those cells that are resistant to radiotherapy (for review see Stratford, 1992). Numerous methods have been proposed for measuring tumour hypoxia (for review see Hodgkiss and Wardman, 1992), in the hope that this would allow treatment to be optimised for individual patients on the basis of the oxygen status of their tumours. In particular, the hypoxia-specific binding of isotopically labelled 2-nitroimidazoles has been used to identify hypoxic cells in tumours, (e.g. Chapman et al., 1982; Franko and Chapman, 1982; Garrecht and Chap- man, 1983; Raleigh et al., 1985; Rasey et al., 1985; Urtasun et al., 1986). Immunological detection of 2-nitroimidazoles has been described (Raleigh et al., 1987; Hodgkiss et al., 1991; Lord et al., 1993) and avoids the administration of radioactive labels, which would be particularly desirable for clinical measurement of tumour hypoxia. The novel compound 7-[4'-(2-nitroimidazol-1-yl)-butyl]- theophylline (NITP), has been described as an immuno- logically detectable bioreductive probe for hypoxic cells (Hodgkiss et al., 1991), and appears to offer promise as a method of quantifying tumour hypoxia in vivo. However, the water solubility of NITP is only c. 2 x 10^-3 M at 20'C and its administration in vivo, dissolved in water or saline, would require an inconveniently large volume of drug solution to be given to achieve an adequate dose level of c. 0.45 lsmol g-'. To circumvent this problem, NITP has been administered in vivo as a solution in peanut oil + 10% DMSO (Hodgkiss et al., 1991). While this formulation has given satisfactory results in the tumour models used, it is clearly unsuitable for clinical administration, and an aqueous preparation of the drug would be preferable. ,-Cyclodextrin consists of seven glucose units joined into a ring, taking up the shape of a three-dimensional torus with a hydrophobic cavity. 'Guest' molecules of a suitable size can fit into the central cavity, and the inclusion complex thus formed can increase the aqueous solubility of lipophilic com- pounds (Szejtli, 1982). […] This paper describes the use of a modified 2-hydroxy-propyl-p-cyclodextrin (Mole- cusol HPB) as an agent for preparing aqueous solutions of NITP. […]
# [4] = 0.45 umol g-1 i.p. in peanut oil + 10% DMSO
# [5] = 0.45 and 0.09 umol g-1 oral in Molecusol
# [6] = Molecusol HPB i.p. 0.09 umol g-1
# [7] = Molecusol HPB i.p. 0.45 umol g-1
# [8] = Molecusol HPB oral 0.09 umol g-1
# [9] = Molecusol HPB oral 0.45 umol g-1, pooled data for three experiments
# [10] = Molecusol HPB oral (footnote a), dose printed 0
# [11] = Peanut oil/DMSO i.p. 0.45 umol g-1
# [12] = plasma, Molecusol HPB i.p. 0.09 umol g-1
# [13] = plasma, Molecusol HPB i.p. 0.45 umol g-1
# [14] = plasma, Molecusol HPB oral 0.09 umol g-1
# [15] = plasma, Molecusol HPB oral 0.45 umol g-1, pooled data for three experiments
# [16] = plasma, Molecusol HPB oral (footnote a), dose printed 0
# [17] = plasma, Peanut oil/DMSO i.p. 0.45 umol g-1
# [18] = plasma, Saline i.p. 0.015 umol g-1
# [19] = plasma, Saline i.t. 0.006 umol g-1
# [20] = saline i.v. 0.015 umol g-1, non-linear regression, biphasic curve
smiles,measurement,setting,value
"Cn1c(=O)c2c(ncn2CCCCn2ccnc2[N+](=O)[O-])n(C)c1=O [NITP, 7-[4'-(2-nitroimidazol-l-yl)-butyl]-theophylline]",improvement in the solubility of NITP over that in water alone,[1],10 fold and ~ 10 fold
same,toxicity,"[2]; NITP in Molecusol i.p., dose reduced by a factor of 5 (0.09 umol g-1)",no toxicity
same,tolerability,"[2]; oral, up to 0.9 umol g-1 NITP in Molecusol (20 umol g-1)",well tolerated with no obvious toxicity
same,binding of NITP in tumours,CaNT tumours; direct injection of NITP saline solution into tumours,substantial binding
same,binding of NITP in tumours,CaNT tumours; i.v. injection of 2 x 10^-3 M solution in saline,little binding
same,proportion of total cells in the region of bound NITP metabolites,CaNT tumours; tumour excised 30 min after oral 0.09 umol g-1 NITP in Molecusol,17%
same,proportion of total cells in the region of bound NITP metabolites,CaNT tumours; tumour excised 90 min after oral 0.45 umol g-1 NITP in Molecusol,19%
same,peak plasma concentration relative to that predicted from a uniform distribution of the compound administered,[3]; [4],about 20%
same,time plasma remains at plateau level,[3]; [4],about 50 min
same,time to reach plasma plateau level,[3]; [4],10 to 15 min
same,peak plasma level relative to that expected from a uniform distribution of the drug,[3]; [5],about 20%
same,plasma clearance half-life,[3]; [5],22 min
same,AUC s.e.m. Tumour,[3]; [6],2.01 M min (x 103)
same,AUC s.e.m. Tumour,[3]; [7],21.2 M min (x 103)
same,AUC s.e.m. Tumour,[3]; [8],0.310 M min (x 103)
same,AUC s.e.m. Tumour,[3]; [9],4.09 M min (x 103)
same,AUC s.e.m. Tumour,[3]; [10],4.62 M min (x 103)
same,AUC s.e.m. Tumour,[3]; [11],6.72 M min (x 103)
same,AUC s.e.m. Tumour,[3]; Saline i.t. 0.006 umol g-1,2.64 M min (x 103)
same,AUC s.e.m. Plasma,[3]; [6],2.54 M min (x 103)
same,AUC s.e.m. Plasma,[3]; [7],27.4 M min (x 103)
same,AUC s.e.m. Plasma,[3]; [8],0.543 M min (x 103)
same,AUC s.e.m. Plasma,[3]; [9],5.41 M min (x 103)
same,AUC s.e.m. Plasma,[3]; [10],5.73 M min (x 103)
same,AUC s.e.m. Plasma,[3]; [11],9.26 M min (x 103)
same,AUC s.e.m. Plasma,[3]; Saline i.p. 0.015 umol g-1,0.100 M min (x 103)
same,AUC s.e.m. Plasma,[3]; Saline i.t. 0.006 umol g-1,0.054 M min (x 103)
same,AUC s.e.m. Plasma,[3]; Saline i.v. 0.005 umol g-1,0.041 M min (x 103)
same,AUC s.e.m. Plasma,[3]; Saline i.v. 0.015 umol g-1,0.177 M min (x 103)
same,Half life s.e.m.,[3]; [12],19.7 min
same,Peak concentration + s.e.m.,[3]; [12],58.2 µM
same,Half life s.e.m.,[3]; [13],36.6 min
same,Peak concentration + s.e.m.,[3]; [13],401 µM
same,Half life s.e.m.,[3]; [14],22.4 min
same,Peak concentration + s.e.m.,[3]; [14],16.2 µM
same,Half life s.e.m.,[3]; [15],26.5 min
same,Peak concentration + s.e.m.,[3]; [15],104 µM
same,Half life s.e.m.,[3]; [16],22.3 min
same,Peak concentration + s.e.m.,[3]; [16],127 µM
same,Half life s.e.m.,[3]; [17],33.1 min
same,Peak concentration + s.e.m.,[3]; [17],96.3 µM
same,Half life s.e.m.,[3]; [18],7.84 min
same,Peak concentration + s.e.m.,[3]; [18],6.78 µM
same,Half life s.e.m.,[3]; [19],9.79 min
same,Peak concentration + s.e.m.,[3]; [19],3.68 µM
same,Half life s.e.m.,"[3]; plasma, Saline i.v. 0.005 umol g-1",8.86 min
same,Peak concentration,"[3]; plasma, Saline i.v. 0.005 umol g-1, 1 min, n = 1",4.06 µM
same,Half life s.e.m.,"[3]; plasma, Saline i.v. 0.015 umol g-1, linear fit to terminal elimination phase",9.64 min
same,volume of distribution,"[3]; saline i.v. 0.015 umol g-1, non-linear regression data",0.63 mL/g
same,distribution phase half-life,[3]; [20],1.7 min
same,elimination half-life,[3]; [20],9.2 min
same,factor by which plasma concentrations lie below the tumour concentration,[3]; single i.t. injection of 0.1 ml 2 x 10^-3 M NITP,≥ 20

# Reference: PMC2034084, “Pharmacokinetics and binding of the bioreductive probe for hypoxia, NITP: effect of route of administration” (British Journal of Cancer, 1995)
